Values quoted from earlier work in patent US20100272830A1, “Biocide Combination for use in Agricultural Applications” (Industrie De Nora S.p.A., priority 2008, published 2010).
Like-named read-outs stand apart in the source and are kept apart here.

- HClO, % of total hypochlorite concentration (pH 5, 25° C.): 99.7%
- HClO, % of total hypochlorite concentration (pH 6, 25° C.): 96.9%
- HClO, % of total hypochlorite concentration (pH 7, 25° C.): 76.0%
- HClO, % of total hypochlorite concentration (pH 8, 25° C.): 24%
- HClO, % of total hypochlorite concentration (pH 9, 25° C.): 3.1%
- HClO, % of total hypochlorite concentration (pH 10, 25° C.): 0.31%
- HClO, % of total hypochlorite concentration (pH 11, 25° C.): 0.03%
- HClO, % of total hypochlorite concentration (pH 12, 25° C.): 0.003%
SMILES: OCl [Hypochlorous acid (HClO), Hypochlorous acid]
